In brackets after ≈: the same amount, converted by molar mass.
Assays:
C. krusei ATCC 6258 [1] = assay: Broth microdilution MIC (CLSI), Examples 3 and 4; details: ATCC 6258 wild-type; 24 h, ~50% inhibition
Procedure: (§1) Antifungal susceptibility testing. Candida strains were cultured aerobically at 35° C. on SDA plates or in RPMI 1640 broth (pH 7.0). […] MIC assays were performed in triplicate.

C. krusei ATCC 6258 [2] = assay: microbe, parasite or virus in culture; assay type: cell-based, Candida krusei
[3] = tested on: azole-resistant Candida albicans R357 strain; assay: microbe, parasite or virus in culture; assay type: cell-based
C. albicans NRRL Y-477 [4] = assay: microbe, parasite or virus in culture; assay type: cell-based, Candida albicans
C. parapsilosis CP02 [5] = assay: microbe, parasite or virus in culture; assay type: cell-based, Candida parapsilosis
[6] = tested on: Aspergillus fumigatus (ATCC 13073); assay: Neutropenic mouse model of disseminated aspergillosis, survival; assay type: in vivo; details: in vivo
[7] = Solubility of test articles in vehicle, visual observation (Table 22); assay type: physicochemical
Procedure: Test Articles. […] Amphotericin B and fluconazole were in powder form. Amphotericin B was dissolved in 0.9% NaCl. Fluconazole was dissolved in water (WFI: water for injection).

C. parapsilosis CP02 [8] = assay: Broth microdilution MIC (CLSI), Examples 3 and 4; details: CP02 wild-type; 24 h, ~50% inhibition
Procedure: as §1

C. albicans NRRL Y-477 [9] = assay: Broth microdilution MIC (CLSI), Examples 3 and 4
Procedure: Antifungal susceptibility testing. […] MIC assays were performed in triplicate.

[10] = tested on: C. glabrata ATCC 90030, ATCC 2001; assay: microbe, parasite or virus in culture; assay type: cell-based, Candida glabrata
[11] = tested on: azole-resistant Candida albicans (R357); assay: Disseminated infection model in neutropenic ICR mice, kidney fungal counts (Example 10, Tables 22-23); assay type: in vivo
[12] = tested on: C. glabrata ATCC 90030, ATCC 2001; assay: Broth microdilution MIC (CLSI), Examples 3 and 4; details: for Broth MIC: 24 h, ~50% inhibition
Procedure: as §1

With `C[C@@H]1[C@H](O)[C@@H](C)/C=C/C=C/C=C/C=C/C=C/C=C/C=C/[C@H](O[C@@H]2O[C@H](C)[C@@H](O)[C@H](N)[C@@H]2O)C[C@@H]2O[C@](O)(C[C@@H](O)C[C@@H](O)[C@H](O)CC[C@@H](O)C[C@@H](O)CC(=O)O[C@H]1C)C[C@H](O)[C@H]2C(=O)O` [AMB, amphotericin B] the “Broth MIC” value (C. krusei ATCC 6258 [1]) was 1 µg/mL, the MIC (C. krusei ATCC 6258 [2]; ATCC 6258 P20-2, selecting drug ANID) was 1 µg/mL (≈ 1.08 µM) and the MIC (C. krusei ATCC 6258 [2]; ATCC 6258 P20-2, selecting drug CAS, Fks1 HS2 I1366S) was 1 µg/mL (≈ 1.08 µM). For the same compound, the MIC (C. krusei ATCC 6258 [2]; ATCC 6258 P20-2, selecting drug CMP1, Fks1 HS2 I1366S) was 1 µg/mL (≈ 1.08 µM), the “Susceptibility (CLSI)” value ([3]; C. albicans R357) was “S” and the MIC ([3]; endpoint 100% inhibition) was 0.5 µg/mL (≈ 0.541 µM). For the same compound, the MIC (C. albicans NRRL Y-477 [4]; NRRL Y-477 P20-1, selecting drug ANID, Fks1 HS1 S645Y, 48 h read) was 0.5 µg/mL (≈ 0.541 µM), the MIC (C. albicans NRRL Y-477 [4]; NRRL Y-477 P20-1, selecting drug CAS) was 0.25 µg/mL (≈ 0.271 µM) and the MIC (C. albicans NRRL Y-477 [4]; NRRL Y-477 P20-1, selecting drug CMP1, 48 h read) was 0.5 µg/mL (≈ 0.541 µM). For the same compound, the MIC (C. parapsilosis CP02 [5]; CP02 P20-1, selecting drug ANID) was 0.5 µg/mL (≈ 0.541 µM), the MIC (C. parapsilosis CP02 [5]; CP02 P20-1, selecting drug CAS) was 0.5 µg/mL (≈ 0.541 µM) and the MIC (C. parapsilosis CP02 [5]; CP02 P20-1, selecting drug CMP1) was 0.5 µg/mL (≈ 0.541 µM). For the same compound, the survival versus vehicle [6] was “significantly longer survival than vehicle”, the Solubility [7] was “S” and the “Broth MIC” value (C. parapsilosis CP02 [8]) was 0.5 µg/mL. The MIC (C. albicans NRRL Y-477 [9]; NRRL Y-477 spontaneous mutant, Fks1 HS1 S645P) was 0.25 µg/mL (≈ 0.271 µM), the “Broth MIC” value (C. albicans NRRL Y-477 [9]; NRRL Y-477 wild-type, 24 h, ~50% inhibition) was 0.5 µg/mL and the MIC ([10]; ATCC 2001 P20-2, selecting drug ANID, Fks1 HS1 D632Y) was 1 µg/mL (≈ 1.08 µM). The MIC ([10]; ATCC 2001 P20-2, selecting drug CAS) was 0.5 µg/mL (≈ 0.541 µM), the MIC ([10]; ATCC 2001 P20-2, selecting drug CMP1) was 0.25 µg/mL (≈ 0.271 µM) and the MIC ([10]; ATCC 90030 P20-1, selecting drug ANID, Fks2 HS1 D666I, 48 h read) was 0.5 µg/mL (≈ 0.541 µM). The MIC ([10]; ATCC 90030 P20-1, selecting drug CAS, Fks2 HS1 F659I D666Y, 48 h read) was 0.25 µg/mL (≈ 0.271 µM), the MIC ([10]; ATCC 90030 P20-2, selecting drug CMP1) was 0.5 µg/mL (≈ 0.541 µM) and the “reduction in fungal counts” value ([11]; 3 mg/kg IV once, 72 hr time point) was “two log reduction”. The “antimicrobial effect versus vehicle (one-way ANOVA, Dunnett's test)” value ([11]; 48 and 72 hr after infection, Compound 1 3, 10, 30 mg/kg IP, amphotericin B 1 and 3 mg/kg IV, fluconazole 20 mg/kg PO) was “Significant effects”, the MIC ([12]; ATCC 2001 spontaneous mutant, Fks2 HS1 D666N) was 0.5 µg/mL (≈ 0.541 µM) and the MIC ([12]; ATCC 2001 spontaneous mutant, Fks2 HS1 D666Y) was 0.5 µg/mL (≈ 0.541 µM). For the same compound, the MIC ([12]; ATCC 2001 spontaneous mutant, Fks2 HS1 R665G) was 0.25 µg/mL (≈ 0.271 µM), the MIC ([12]; ATCC 2001 spontaneous mutant, Fks2 HS1 S663F) was 0.25 µg/mL (≈ 0.271 µM) and the MIC ([12]; ATCC 2001 spontaneous mutant, Fks2 HS1 ΔF659) was 0.25 µg/mL (≈ 0.271 µM). For the same compound, the MIC ([12]; ATCC 2001 spontaneous mutant, Fks2 HS2 R1378S) was 0.25 µg/mL (≈ 0.271 µM), the “Broth MIC” value ([12]; ATCC 2001 wild-type) was 0.5 µg/mL and the MIC ([12]; ATCC 90030 spontaneous mutant, Fks2 HS1 D666H) was 0.5 µg/mL (≈ 0.541 µM). The MIC ([12]; ATCC 90030 spontaneous mutant, Fks2 HS1 ΔF659) was 0.5 µg/mL (≈ 0.541 µM) and the “Broth MIC” value ([12]; ATCC 90030 wild-type) was 0.5 µg/mL.
